From US20240025862A1, “SUBSTITUTED N-PHENYLURACILS AND SALTS THEREOF, AND USE THEREOF AS HERBICIDAL ACTIVE SUBSTANCES” (Bayer Aktiengesellschaft, priority 2020, published 2024)

Assays:
Type in all cases: in vivo
Zea mays (ZEAMX) [1] = assay: Pre-emergence crop plant compatibility, greenhouse pot test; settings: 20 g/ha
Text: (§1) Seeds of monocotyledonous and dicotyledonous weed plants and crop plants were placed in plastic or organic planting pots and covered with soil. The compounds of the invention, formulated in the form of wettable powders (WP) or as emulsion concentrates (EC), were then applied to the surface of the covering soil as aqueous suspension or emulsion with addition of 0.5% additive at a water application rate equivalent to 600 l/ha (converted). After the treatment, the pots were placed in a greenhouse and kept under good growth conditions for the test plants. After about 3 weeks, the effect of the preparations was scored visually in comparison with untreated controls as percentages. For example, 100% activity=the plants have died, 0% activity=like control plants.
The observed effects on selected crop plants are reported here in comparison to the untreated controls (values in %).

Brassica napus (BRSNW) = assay: Post-emergence crop plant compatibility, greenhouse pot test; settings: 1.25 g/ha, vs untreated controls
Procedure, shortened: (§2)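 Visual % damage vs untreated controls, scored ~3 weeks post-spray (100% = dead, 0% = as control). Plants in sandy loam, greenhouse; treated at one-leaf stage, 2–3 wk after sowing. WP/EC, aqueous, 0.5% additive, 600 l/ha. Suffixes a/b/c = different dosages.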

Zea mays (ZEAMX) [2] = assay: as above; settings: 1.25 g/ha, vs untreated controls
Procedure, shortened: as §2

[3] = test system: Triticum aestivum (TRZAS); assay: as above; settings: 1.25 g/ha, vs untreated controls
Procedure, shortened: as §2

Glycine max (GLXMA) = assay: as above
Procedure, shortened: as §2

[4] = test system: Polygonum convolvulus (POLCO); assay: Post-emergence herbicidal action, greenhouse pot test; settings: Fallopia convolvulus, 504 h, read-out: Post-emergence action against POLCO in %
Procedure, shortened: (§3)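 Activity was scored by eye about 3 weeks after treatment against untreated plants, where 100% means dead plants and 0% means no difference. Plants at the one-leaf stage received a foliar spray of WP or EC formulations in water plus 0.5% additive (600 l/ha, up to 20 g/ha). Plants were grown in sandy loam pots in a greenhouse for 2–3 weeks before spraying.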

Viola tricolor (VIOTR) = assay: as above; settings: Viola tricolor, 504 h, read-out: Post-emergence action against VIOTR
Procedure, shortened: as §3

Avena fatua (AVEFA) [5] = assay: as above; settings: Avena fatua, 504 h, 20 g/ha, rated visually after about 3 weeks vs untreated controls, 100% = plants have died, read-out: Post-emergence action at 20 g/ha against AVEFA in %
Procedure, shortened: as §3

[6] = test system: Abutilon theophrasti (ABUTH); assay: as above; settings: Abutilon theophrasti, 504 h, rated visually after about 3 weeks vs untreated controls, 100% = plants have died
Procedure, shortened: as §3

[7] = test system: Amaranthus retroflexus (AMARE); assay: as above; settings: Amaranthus retroflexus, 504 h, rated visually after about 3 weeks vs untreated controls, 100% = plants have died
Procedure, shortened: as §3

Lolium rigidum (LOLRI) [8] = assay: as above; settings: Lolium rigidum, 504 h, dosage 20 g/ha, read-out: Post-emergence action against LOLRI in %
Procedure, shortened: as §3

Veronica persica (VERPE) [9] = assay: as above; settings: Veronica persica, 504 h, read-out: Post-emergence action against VERPE
Procedure, shortened: as §3

Avena fatua (AVEFA) [10] = assay: Pre-emergence herbicidal action, greenhouse pot test; settings: 80 g/ha, scored after about 3 weeks
Text: as §1
(§4) Tables B1 to B10 below show the effects of selected compounds of the general formula (I) according to Tables I.1 to I.33 on various harmful plants and at an application rate corresponding to 80 g/ha and less, which were obtained by the experimental method specified above. The appendices “a”, “b” and “c” give differentiation by different dosage with otherwise the same harmful plants tested.

[11] = test system: Alopecurus myosuroides (ALOMY); assay: as above; settings: scored after about 3 weeks
Text: as §1, §4

[12] = test system: Echinochloa crus-galli (ECHCG); assay: as above; settings: 80 g/ha, scored after about 3 weeks
Text: as §1, §4

[13] = test system: Abutilon theophrasti (ABUTH); assay: as above; settings: scored after about 3 weeks
Text: as §1, §4

[14] = test system: Amaranthus retroflexus (AMARE); assay: as above; settings: scored after about 3 weeks
Text: as §1, §4

[15] = test system: Pharbitis purpurea (PHBPU); assay: as above; settings: scored after about 3 weeks
Text: as §1, §4

[16] = test system: Digitaria sanguinalis (DIGSA); assay: as above; settings: scored after about 3 weeks
Text: as §1, §4

Lolium rigidum (LOLRI) [17] = assay: as above; settings: 80 g/ha, scored after about 3 weeks
Text: as §1, §4

[18] = test system: Matricaria inodora (MATIN); assay: as above; settings: scored after about 3 weeks
Text: as §1, §4

Veronica persica (VERPE) [19] = assay: as above; settings: scored after about 3 weeks
Text: as §1, §4

Pre-emergence action against ZEAMX in % (Zea mays (ZEAMX) [1]): 0%
Post-emergence action against BRSNW (crop plant compatibility) (Brassica napus (BRSNW)): 20%
Post-emergence action against ZEAMX (crop plant compatibility) (Zea mays (ZEAMX) [2]): 20%
Post-emergence action against TRZAS (crop plant compatibility) [3]: 20%
Post-emergence action against GLXMA in % (Glycine max (GLXMA); 1.25 g/ha): 10%
Post-emergence action against GLXMA in % (Glycine max (GLXMA); 5 g/ha): 10%
Post-emergence action against GLXMA in % (Glycine max (GLXMA); 20 g/ha): 10%
SMILES: COCCOC(=O)COc1ccccc1Oc1cc(-n2c(=O)cc(C(F)(F)F)n(C)c2=O)c(F)cc1Cl [I.7-1, 2-Methoxyethyl (2-{2-chloro-4-fluoro-5-[3-methyl-2,6-dioxo-4-(trifluoromethyl)-3,6-dihydropyrimidin-1(2H)-yl]phenoxy}phenoxy)acetate]
pest or weed control at 5 g/ha ([4]; dosage 5 g/ha): 80%
pest or weed control at 20 g/ha ([4]; dosage 20 g/ha): 100%
pest or weed control at 1.25 g/ha (Viola tricolor (VIOTR); 1.25 g/ha): 100%
pest or weed control at 5 g/ha (Viola tricolor (VIOTR); 5 g/ha): 100%
pest or weed control at 20 g/ha (Viola tricolor (VIOTR); 20 g/ha): 100%
pest or weed control at 20 g/ha (Avena fatua (AVEFA) [5]): 80%
pest or weed control at 5 g/ha ([6]; 5 g/ha, read-out: Post-emergence action at 5 g/ha against ABUTH in %): 100%
pest or weed control at 20 g/ha ([6]; 20 g/ha, read-out: Post-emergence action at 20 g/ha against ABUTH in %): 100%
pest or weed control at 1.25 g/ha ([7]; 1.25 g/ha, read-out: Post-emergence action at 1.25 g/ha against AMARE in %): 100%
pest or weed control at 5 g/ha ([7]; 5 g/ha, read-out: Post-emergence action at 5 g/ha against AMARE in %): 100%
pest or weed control at 20 g/ha ([7]; 20 g/ha, read-out: Post-emergence action at 20 g/ha against AMARE in %): 100%
pest or weed control at 20 g/ha (Lolium rigidum (LOLRI) [8]): 80%
pest or weed control at 1.25 g/ha (Veronica persica (VERPE) [9]; 1.25 g/ha): 100%
pest or weed control at 5 g/ha (Veronica persica (VERPE) [9]; 5 g/ha): 100%
pest or weed control at 20 g/ha (Veronica persica (VERPE) [9]; 20 g/ha): 100%
Pre-emergence action against AVEFA in % (Avena fatua (AVEFA) [10]): 100%
Pre-emergence action against ALOMY in % ([11]; 20 g/ha): 80%
Pre-emergence action against ALOMY in % ([11]; 80 g/ha): 100%
Pre-emergence action against ECHCG in % [12]: 90%
Pre-emergence action against ABUTH in % ([13]; 20 g/ha): 100%
Pre-emergence action against ABUTH in % ([13]; 80 g/ha): 100%
Pre-emergence action against AMARE in % ([14]; 20 g/ha): 100%
Pre-emergence action against AMARE in % ([14]; 80 g/ha): 100%
Pre-emergence action against PHBPU in % ([15]; 20 g/ha): 100%
Pre-emergence action against PHBPU in % ([15]; 80 g/ha): 100%
Pre-emergence action against DIGSA in % ([16]; 20 g/ha): 100%
Pre-emergence action against DIGSA in % ([16]; 80 g/ha): 100%
Pre-emergence action against LOLRI in % (Lolium rigidum (LOLRI) [17]): 100%
Pre-emergence action against MATIN in % ([18]; 20 g/ha): 100%
Pre-emergence action against MATIN in % ([18]; 80 g/ha): 100%
Pre-emergence action against VERPE in % (Veronica persica (VERPE) [19]; 20 g/ha): 100%
Pre-emergence action against VERPE in % (Veronica persica (VERPE) [19]; 80 g/ha): 100%
